This passage reports T/C results from PubChem BioAssay AID342 (DTP/NCI, 2004).

“And” between values parts separate entries of the source, which are not always exact repeats. Identical values can stand only once.

This assay concerns Swiss mice, Sarcoma 180 sc, mean tumor weight T/C. The experiment in a line: NCI In Vivo Anticancer Drug Screen. Data for tumor model Sarcoma 180 (subcutaneous) in Swiss mice. Conditions: endpoint: mean tumor weight, higher = larger tumour. An outline of the steps:
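Readout is the ratio of treated-group measurement to vehicle-control measurement (T/C), based on survival or tumor size in mice carrying transplanted tumors.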

Where [1] appears, read: dose: 375.0 mg/kg/injection, schedule: Q01DX007 (ip), vehicle: other.

Turning to `COc1cccc(/C=N\NC(=O)C(C)SC(C)C(=O)N/N=C/c2cccc(OC)c2)c1` (configuration not stated), the T/C (usually the ratio of treated to control) (dose: 25.0 mg/kg/injection, schedule: Q01DX007 (ip), vehicle: carboxymethylcellulose (CMC)) is 68 % of control; the T/C (dose: 38.0 mg/kg/injection, schedule: Q01DX007 (ip), vehicle: carboxymethylcellulose (CMC)) was 62 % of control; the T/C (dose: 42.0 mg/kg/injection, schedule: Q#A X014 (ip), vehicle: carboxymethylcellulose (CMC)) was 78 % of control; the T/C (dose: 53.0 mg/kg/injection, schedule: Q01DX007 (ip), vehicle: methylcellulose (MC)) is 77 % of control; the T/C (dose: 56.0 mg/kg/injection, schedule: Q01DX007 (ip), vehicle: carboxymethylcellulose (CMC)) is 35 % of control; the T/C (dose: 63.0 mg/kg/injection, schedule: Q#A X014 (ip), vehicle: carboxymethylcellulose (CMC)) is 79 % of control. In addition, the T/C (dose: 80.0 mg/kg/injection, schedule: Q01DX007 (ip), vehicle: methylcellulose (MC)) is 63 % of control; the T/C (dose: 95.0 mg/kg/injection, schedule: Q#A X014 (ip), vehicle: carboxymethylcellulose (CMC)) was 65 % of control; the T/C (dose: 120.0 mg/kg/injection, schedule: Q01DX007 (ip), vehicle: methylcellulose (MC)) was 47 % of control; the T/C (dose: 142.5 mg/kg/injection, schedule: Q#A X014 (ip), vehicle: carboxymethylcellulose (CMC)) is 61 % of control; the T/C (dose: 180.0 mg/kg/injection, schedule: Q01DX007 (ip), vehicle: methylcellulose (MC)) was 59 % of control; the T/C (dose: 270.0 mg/kg/injection, schedule: Q01DX007 (ip), vehicle: methylcellulose (MC)) was 58 % of control. For the same compound, the T/C is 64 % of control (dose: 300.0 mg/kg/injection, schedule: Q01DX007 (ip), vehicle: carboxymethylcellulose (CMC)) and 59 % of control (dose: 400.0 mg/kg/injection, schedule: Q01DX007 (ip), vehicle: carboxymethylcellulose (CMC)).
For the compound `CC(=O)NC(CCC(=O)C=[N+]=N)C(=O)O` (configuration not stated), the T/C (dose: 0.03 mg/kg/injection, schedule: Q01DX007 (ip), vehicle: water) is 62 % of control and 80 % of control; the T/C (dose: 0.05 mg/kg/injection, schedule: Q01DX007 (ip), vehicle: water) was 58 % of control and 63 % of control; the T/C (dose: 0.1 mg/kg/injection, schedule: Q01DX007 (ip), vehicle: water) is 13 % of control and 26 % of control; the T/C (dose: 0.2 mg/kg/injection, schedule: Q01DX007 (ip), vehicle: water) is 1 % of control.
For the compound `COC(=O)c1cc([N+](=O)[O-])cc([N+](=O)[O-])c1Cl`, the T/C reads like this: (dose: 6.0 mg/kg/injection, schedule: Q01DX007 (ip), vehicle: methylcellulose (MC)) 91 % of control; (dose: 12.0 mg/kg/injection, schedule: Q01DX007 (ip), vehicle: methylcellulose (MC)) 111 % of control; (dose: 25.0 mg/kg/injection, schedule: Q01DX007 (ip), vehicle: methylcellulose (MC)) 86 % of control.
Regarding `O=CNc1c(Br)cc2c(c1Br)Cc1cc([N+](=O)[O-])ccc1-2`, the T/C is, setting by setting: (dose: 7.0 mg/kg/injection, schedule: Q01DX007 (ip), vehicle: carboxymethylcellulose (CMC)) 52 % of control; (dose: 11.0 mg/kg/injection, schedule: Q01DX007 (ip), vehicle: carboxymethylcellulose (CMC)) 45 % of control; (dose: 17.0 mg/kg/injection, schedule: Q01DX007 (ip), vehicle: carboxymethylcellulose (CMC)) 40 % of control; (dose: 26.0 mg/kg/injection, schedule: Q01DX007 (ip), vehicle: carboxymethylcellulose (CMC)) 22 % of control.
With `CC(=O)Nc1cc2c(cc1Br)-c1ccccc1C2O` (configuration not stated), the T/C reads like this: (dose: 48.0 mg/kg/injection, schedule: Q01DX007 (ip), vehicle: other) 60 % of control; (dose: 73.0 mg/kg/injection, schedule: Q01DX007 (ip), vehicle: other) 93 % of control; (dose: 130.0 mg/kg/injection, schedule: Q01DX007 (ip), vehicle: saline) 40 % of control and 56 % of control; (dose: 195.0 mg/kg/injection, schedule: Q01DX007 (ip), vehicle: saline) 107 % of control; (dose: 250.0 mg/kg/injection, schedule: Q01DX007 (ip), vehicle: other) 36 % of control; under setting [1], 46 % of control. The T/C (dose: 560.0 mg/kg/injection, schedule: Q01DX007 (ip), vehicle: other) was 32 % of control.
`COC(=O)C1(N)CCCC1`: the T/C is, setting by setting: (dose: 60.0 mg/kg/injection, schedule: Q01DX007 (ip), vehicle: carboxymethylcellulose (CMC)) 59 % of control; (dose: 90.0 mg/kg/injection, schedule: Q01DX007 (ip), vehicle: carboxymethylcellulose (CMC)) 42 % of control; (dose: 135.0 mg/kg/injection, schedule: Q01DX007 (ip), vehicle: carboxymethylcellulose (CMC)) 33 % of control; (dose: 202.0 mg/kg/injection, schedule: Q01DX007 (ip), vehicle: carboxymethylcellulose (CMC)) 20 % of control.
Regarding `Nc1nc(SC2CCCCC2)c2[nH]cnc2n1`, the T/C is 89 % of control (dose: 120.0 mg/kg/injection, schedule: Q01DX007 (ip), vehicle: carboxymethylcellulose (CMC)) and 33 % of control (dose: 240.0 mg/kg/injection, schedule: Q01DX007 (ip), vehicle: carboxymethylcellulose (CMC)).
`CC1CN1P(=O)(N1CCCC1)N1CC1C` (configuration not stated): the T/C is, setting by setting: (dose: 15.5 mg/kg/injection, schedule: Q#A X014 (ip), vehicle: saline) 27 % of control and 48 % of control; (dose: 23.5 mg/kg/injection, schedule: Q#A X014 (ip), vehicle: saline) 4 % of control; (dose: 31.0 mg/kg/injection, schedule: Q01DX007 (ip), vehicle: saline) 77 % of control; (dose: 47.0 mg/kg/injection, schedule: Q01DX007 (ip), vehicle: saline) 100 % of control; (dose: 70.0 mg/kg/injection, schedule: Q01DX007 (ip), vehicle: saline) 50 % of control.
For the compound `CCc1nc(N)nc(N)c1-c1ccc(Cl)c(Cl)c1.[Cl][Pd][Cl]`, the T/C was 95 % of control (dose: 6.6 mg/kg/injection, schedule: Q01DX007 (ip), vehicle: carboxymethylcellulose (CMC)); 111 % of control (dose: 8.0 mg/kg/injection, schedule: Q01DX007 (ip), vehicle: methylcellulose (MC)); 49 % of control (dose: 10.0 mg/kg/injection, schedule: Q01DX007 (ip), vehicle: carboxymethylcellulose (CMC)); 35 % of control (dose: 15.0 mg/kg/injection, schedule: Q01DX007 (ip), vehicle: carboxymethylcellulose (CMC)); 55 % of control (dose: 15.0 mg/kg/injection, schedule: Q01DX007 (ip), vehicle: methylcellulose (MC)); 34 % of control (dose: 22.5 mg/kg/injection, schedule: Q01DX007 (ip), vehicle: carboxymethylcellulose (CMC)). Besides, where the note is “dose: 30.0 mg/kg/injection, schedule: Q01DX007 (ip), vehicle: methylcellulose (MC)”, the T/C is 51 % of control.
With `CC(=O)OCC1OC(n2ncc(=O)[nH]c2=O)C(OC(C)=O)C1OC(C)=O` (configuration not stated), the T/C reads like this: under setting [1], 74 % of control; (dose: 750.0 mg/kg/injection, schedule: Q01DX007 (ip), vehicle: other) 93 % of control; (dose: 1500.0 mg/kg/injection, schedule: Q01DX007 (ip), vehicle: other) 74 % of control.
For `CC(=O)N(C)C`, the T/C is, setting by setting: (dose: 62.0 mg/kg/injection, schedule: Q01DX007 (ip), vehicle: carboxymethylcellulose (CMC)) 100 % of control; (dose: 125.0 mg/kg/injection, schedule: Q01DX007 (ip), vehicle: carboxymethylcellulose (CMC)) 95 % of control; (dose: 500.0 mg/kg/injection, schedule: Q01DX007 (ip), vehicle: carboxymethylcellulose (CMC)) 65 % of control; (dose: 750.0 mg/kg/injection, schedule: Q01DX007 (ip), vehicle: saline) 104 % of control; (dose: 1000.0 mg/kg/injection, schedule: Q01DX007 (ip), vehicle: saline) 70 % of control.
With `O=CNC(Cc1ccc(N(CCCl)CCCl)cc1)C(=O)O` (configuration not stated), the T/C is, setting by setting: (dose: 22.0 mg/kg/injection, schedule: Q#A X014 (ip), vehicle: methylcellulose (MC)) 61 % of control; (dose: 33.0 mg/kg/injection, schedule: Q#A X014 (ip), vehicle: methylcellulose (MC)) 60 % of control; (dose: 50.0 mg/kg/injection, schedule: Q#A X014 (ip), vehicle: methylcellulose (MC)) 25 % of control; (dose: 75.0 mg/kg/injection, schedule: Q#A X014 (ip), vehicle: methylcellulose (MC)) 11 % of control.
